Test results reported in patent US20040092428A1, “Oral pharmaceuticals formulation comprising paclitaxel, derivatives and methods of administration thereof” (priority 2001, published 2004).

Target: P-glycoprotein (Homo sapiens, UniProt P08183)
Method: P-glycoprotein inhibition has been determined with an in vitro assay. […] Therefore, the initial pool of compounds screened included excipients that were acceptable for oral or IV use and included PEG in the chemical structure. Compounds were first screened for toxicity in the NIH3T3 cell line and then tested for P-gp inhibition with paclitaxel using the protocol outlined below:
Day 0: Seed cells and incubate.
Day 1: Add potential P-gp inhibitor at fixed concentration and paclitaxel at various concentrations and incubate for 2 days.
Day 3: Add MTT and extraction/lysis buffer.
Day 4: Read absorbance to measure cell growth. Calculate IC50 to determine amount of paclitaxel required for cell death
After calculations of IC50 values, relative rank order of the compounds were determined.

Chain of P-glycoprotein (P08183 whole entry): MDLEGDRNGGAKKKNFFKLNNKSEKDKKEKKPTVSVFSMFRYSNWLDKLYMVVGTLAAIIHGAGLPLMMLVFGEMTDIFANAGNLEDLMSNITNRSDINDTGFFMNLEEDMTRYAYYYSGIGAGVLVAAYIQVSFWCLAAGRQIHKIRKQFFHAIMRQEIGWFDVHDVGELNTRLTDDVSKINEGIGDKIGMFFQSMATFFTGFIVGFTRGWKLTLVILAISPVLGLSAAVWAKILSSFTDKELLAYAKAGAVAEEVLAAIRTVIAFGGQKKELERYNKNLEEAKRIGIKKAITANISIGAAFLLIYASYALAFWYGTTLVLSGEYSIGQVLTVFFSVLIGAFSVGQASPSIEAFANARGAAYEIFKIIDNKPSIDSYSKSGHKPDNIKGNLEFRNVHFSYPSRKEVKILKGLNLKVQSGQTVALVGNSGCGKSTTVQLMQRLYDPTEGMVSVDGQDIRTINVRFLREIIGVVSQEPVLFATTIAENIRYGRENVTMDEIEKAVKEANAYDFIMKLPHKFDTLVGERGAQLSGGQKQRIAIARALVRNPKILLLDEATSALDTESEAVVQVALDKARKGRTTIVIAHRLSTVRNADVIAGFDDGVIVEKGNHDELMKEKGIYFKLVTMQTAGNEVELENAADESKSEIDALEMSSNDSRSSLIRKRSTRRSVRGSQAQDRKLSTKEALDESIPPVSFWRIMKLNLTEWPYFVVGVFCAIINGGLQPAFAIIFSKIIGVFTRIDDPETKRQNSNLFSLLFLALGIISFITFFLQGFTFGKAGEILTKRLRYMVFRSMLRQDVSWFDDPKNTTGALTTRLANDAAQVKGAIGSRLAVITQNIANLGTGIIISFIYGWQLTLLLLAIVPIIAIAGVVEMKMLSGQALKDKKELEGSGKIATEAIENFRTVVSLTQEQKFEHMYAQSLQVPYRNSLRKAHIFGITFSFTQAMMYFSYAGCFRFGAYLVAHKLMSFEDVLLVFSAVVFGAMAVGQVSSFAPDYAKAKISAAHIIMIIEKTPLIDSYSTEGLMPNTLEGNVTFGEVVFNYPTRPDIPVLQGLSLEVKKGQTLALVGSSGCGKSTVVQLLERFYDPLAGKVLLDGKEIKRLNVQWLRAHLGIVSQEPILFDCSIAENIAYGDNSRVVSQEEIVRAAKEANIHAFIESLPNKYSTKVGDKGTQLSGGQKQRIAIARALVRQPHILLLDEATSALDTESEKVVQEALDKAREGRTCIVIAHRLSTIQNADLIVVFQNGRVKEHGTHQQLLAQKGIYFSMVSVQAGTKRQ

Row | Substance | P-gp inhibition measured by an IC50 ratio
1 | PEG-100 stearate | > 1.0
2 | polysorbate 80 | > 1.0
